According to patent publication US20060252828A1 (priority 2003, published 2006):
“And” between values parts separate entries of the source, which are not always exact repeats. Identical values can stand only once.

Tested on: Meloidogyne spp (Mixture of Meloidogyne incognita and Meloidogyne hapla)
Conditions: in vivo

CN1CSC(=S)N(C)C1 [dazomet, 3,5-dimethyltetrahydro-2H-1,3,5-thiadiazine-2-thione]
Observed efficacy: 2% and 0%
